Patent US20240002375A1, “2-(INDAZOL-5-YL)-6-(PIPERIDIN-4-YL)-1,7-NAPHTHYRIDINE DERIVATIVES AND RELATED COMPOUNDS AS MODULATORS FOR SPLICING NUCLEIC ACIDS AND FOR THE TRE” (REMIX THERAPEUTICS INC., priority 2020, published 2024)

How the values were obtained:
Format in all cases: cell-based
[1] = test system: HTT mRNA; assay: Splicing assay (RT-qPCR) of HTT mRNA alternative junction (AJ) and canonical junction (CJ); conditions: A673 or K562 cells, 24 hours; for IC50: decrease in CJ mRNA, read-out: HTT CJ IC50; for AC50: increase in AJ mRNA, read-out: HTT AJ AC50
Protocol: Compounds described herein were used to modulate RNA transcript abundance in cells. The expression of a target mRNA was measured by detecting the formation of an exon-exon junction in the canonical transcript (CJ). A compound mediated exon-inclusion event was detected by observing an increase in formation of a new junction with an alternative exon (AJ). Real-time qPCR assays were used to detect these splicing switches and interrogate the potency of various compounds towards different target genes. A high-throughput real time quantitative PCR (RT-qPCR) assay was developed to measure these two isoforms of the mRNA (CJ and AJ) for an exemplary gene, HTT, together with a control housekeeping gene, GAPDH or GUSB or PPIA, used for normalization. Briefly, the A673 or K562 cell line was treated with various compounds described herein (e.g., compounds of Formula (I) or (II)). After treatment, the levels of the HTT mRNA targets were determined from each sample of cell lysate by cDNA synthesis followed by qPCR.
Materials: • Cells-to-CT 1-step kit: ThermoFisher A25602, Cells-to-CT lysis reagent: ThermoFisher 4391851C, TagMan™ Fast Virus 1-Step Master Mix: ThermoFisher 4444436 • GAPDH: VIC-PL, ThermoFisher 4326317E (Assay: Hs99999905_ml)—used for K562/suspension cell lines • GUSB: VIC-PL, ThermoFisher 4326320E (Assay: Hs99999908 ml)—used for K562/suspension cell lines • PPIA: VIC-PL, ThermoFisher 4326316E (Assay: Hs99999904 ml)—used for A673/adherent cell lines
The A673 cell line was cultured in DMEM with 10% FBS. Cells were diluted with full growth media and plated in a 96-well plate (15,000 cells in 100 ul media per well). The plate was incubated at 37° C. with 5% CO2 for 24 hours to allow cells to adhere. An 11-point 3-fold serial dilution of the compounds was made in DMSO then diluted in media in an intermediate plate. Compounds were transferred from the intermediate plate to the cell plate with the top dose at a final concentration of 10 uM in the well. Final DMSO concentration was kept at or below 0.25%. The cell plate was returned to the incubator at 37° C. with 5% CO2 for an additional 24 hours.
The K562 cell line was cultured in IMDM with 10% FBS. For K562, cells were diluted with full growth media and plated in either a 96-well plate (50,000 cells in 50 uL media per well) or a 384-well plate (8,000-40,000 cells in 45 uL media per well). An 11-point 3-fold serial dilution of the compounds were made in DMSO then diluted in media in an intermediate plate. Compound was transferred from the intermediate plate to the cell plate with the top dose at a final concentration of 10 uM in the well. Final DMSO concentration was kept at or below 0.25%. Final volume was 100 uL for 96-well plate and 50 uL for 384-well plate. The cell plate was then placed in an incubator at 37° C. with 5% CO2 for 24 hours.
The cells were then gently washed with 50 uL-100 uL cold PBS before proceeding to addition of lysis buffer. 30 uL-50 uL of room temperature lysis buffer with DNAse I (and optionally RNAsin) was added to each well. Cells were shaken/mixed thoroughly at room temperature for 5-10 minutes for lysis to take place and then 3 uL-5 uL of room temperature stop solution was added and wells were shaken/mixed again. After 2-5 minutes, the cell lysate plate was transferred to ice for RT-qPCR reaction setup. The lysates could also be frozen at −80° C. for later use.
In some cases, a direct lysis buffer was used. An appropriate volume of 3X lysis buffer (10 mM Tris, 150 mM NaCl, 1.5%-2.5% Igepal and 0.1-1 U/uL RNAsin, pH 7.4) was directly added to either K562 or A673 cells in media and mixed by pipetting 3 times. The plates were then incubated at room temperature with shaking/rocking for 20-50 minutes to allow for lysis to take place. After this time, the cell lysate plate was transferred to ice to set up for the RT-qPCR reactions. The lysates could also be frozen at −80° C. for later use. […]

[2] = test system: HTT CJ mRNA; assay: Gene panel canonical junction qPCR splicing assay, HTT; conditions: Table 4, read-out: HTT IC50 (decrease in CJ mRNA levels)
Protocol: (§1) Compounds described herein were used to modulate RNA transcript abundance in cells. The expression of a target mRNA was measured by detecting the formation of an exon-exon junction in the canonical transcript (CJ). A compound mediated exon-inclusion event was detected by observing an increase in formation of a new junction with an alternative exon (AJ). Real-time qPCR assays were used to detect these splicing switches and interrogate the potency of various compounds towards different target genes. A high-throughput real time quantitative PCR (RT-qPCR) assay was developed to measure these two isoforms of the mRNA (CJ and AJ) for an exemplary gene, HTT, together with a control housekeeping gene, GAPDH or GUSB or PPIA, used for normalization. Briefly, the A673 or K562 cell line was treated with various compounds described herein (e.g., compounds of Formula (I) or (II)). After treatment, the levels of the HTT mRNA targets were determined from each sample of cell lysate by cDNA synthesis followed by qPCR. The data analysis was performed by first determining the ΔCt vs the housekeeper gene. This ΔCt was then normalized against the DMSO control (ΔΔCt) and converted to RQ (relative quantification) using the 2^(−ΔΔCt) equation. The RQ were then converted to a percentage response by arbitrarily setting an assay window of 3.5 ΔCt for HTT-CJ and an assay window of 9 ΔCt for HTT-AJ. […] The percentage response was then fitted to the 4 parametric logistic equation to evaluate the concentration dependence of compound treatment. The increase in AJ mRNA is reported as AC50 (compound concentration having 50% response in AJ increase) while the decrease in CJ mRNA levels is reported as IC50 (compound concentration having 50% response in CJ decrease). Additional studies were carried out for a larger panel of genes using the protocol provided above. The junction between flanking upstream and downstream exons was used to design canonical junction qPCR assays. At least one of the forward primer, reverse primer or the CY5-labeled 5′ nuclease probe (with 3′ quencher such as ZEN/Iowa Black FQ) was designed to overlap with the exon junction to capture the CJ mRNA transcript. BLAST was used to confirm the specificity of the probeset and parameters such as melting temperature, GC content, amplicon size, and primer dimer formation are considered during their design. Data for the decrease in CJ mRNA levels for three exemplary genes (HTT, SMN2, and Target C) analyzed in this panel are reported as IC50 (compound concentration having 50% response in CJ decrease).

[3] = test system: SMN2 CJ mRNA; assay: Gene panel canonical junction qPCR splicing assay, SMN2; conditions: Table 4, read-out: SMN2 IC50 (decrease in CJ mRNA levels)
Protocol: as §1

[4] = test system: Target C CJ mRNA; assay: Gene panel canonical junction qPCR splicing assay, Target C; conditions: Table 4, read-out: Target C IC50 (decrease in CJ mRNA levels)
Protocol: as §1

| IC50 [1] [nM] | IC50 [2] [nM] | IC50 [3] [nM] | IC50 [4] [nM] | Structure (SMILES) | AC50 [1] [nM] |
| --- | --- | --- | --- | --- | --- |
| < 100 | < 100 | < 100 | < 100 | Cn1cc2cc(-c3ccc4nc(N5CC[C@@H](NC6(C)CC6)C5)ccc4n3)c(O)c(F)c2n1 (single isomer, unassigned) [Compound 223] | < 100 |
| < 100 | < 100 | < 100 | < 100 | Cc1c(O)c(-c2ccc3nc(N4CC[C@@H](NC5(C)CC5)C4)ccc3n2)cc2cn(C)nc12 (single isomer, unassigned) [Compound 225] | < 100 |
| < 100 | < 100 | < 100 | < 100 | Cc1c(O)c(-c2ccc3nc(N4CC[C@H](NC5(C)CC5)C4)ccc3n2)cc2cn(C)nc12 (single isomer, unassigned) [Compound 226, 2,7-dimethyl-5-{6-[(35)-3-[(1-methylcyclopropyl)amino]pyrrolidin-1-yl]-1,5-naphthyridin-2-yl}indazol-6-ol] | < 100 |
| < 100 | < 100 | < 100 | 100 to 1000 | Cc1nc2cc(O)c(-c3ccc4nc(N5CCC(NC6CCC6)C5)ccc4n3)cc2o1 (single isomer, unassigned) [Compound 229, 6-{6-[3-(cyclobutylamino)pyrrolidin-1-yl]-1,5-naphthyridin-2-yl}-2-methyl-1,3-benzoxazol-5-ol] | < 100 |
| < 100 | < 100 | < 100 | 100 to 1000 | Cc1nc2cc(O)c(-c3ccc4nc(N5CCC(NC6CCC6)C5)ccc4n3)cc2o1 (single isomer, unassigned) [Compound 230, 6-{6-[3-(cyclobutylamino)pyrrolidin-1-yl]-1,5-naphthyridin-2-yl}-2-methyl-1,3-benzoxazol-5-ol] | < 100 |
| < 100 | < 100 | < 100 | < 100 | Cc1nc2cc(O)c(-c3ccc4nc(N5CC[C@@H](NC(C)C)C5)ccc4n3)cc2o1 (single isomer, unassigned) [Compound 232, 6-{6-[3-(isopropylamino)pyrrolidin-1-yl]-1,5-naphthyridin-2-yl}-2-methyl-1,3-benzoxazol-5-ol] | < 100 |
| < 100 | < 100 | < 100 | < 100 | Cc1nc2cc(O)c(-c3ccc4nc(N5CC[C@H](NC(C)C)C5)ccc4n3)cc2o1 (single isomer, unassigned) [Compound 233, 6-{6-[3-(isopropylamino)pyrrolidin-1-yl]-1,5-naphthyridin-2-yl}-2-methyl-1,3-benzoxazol-5-ol] | < 100 |
| < 100 | < 100 | < 100 | < 100 | Cc1nc2c(C)c(O)c(-c3ccc4nc(N5CCC(NC6CCC6)C5)ccc4n3)cc2o1 (single isomer, unassigned) [Compound 237, 6-{6-[3-(cyclobutylamino)pyrrolidin-1-yl]-1,5-naphthyridin-2-yl}-2,4-dimethyl-1,3-benzoxazol-5-ol] | < 100 |
| < 100 | < 100 | < 100 | < 100 | Cc1nc2c(F)c(O)c(-c3ccc4nc(N5CC[C@@H](NC6CC6)C5)ccc4n3)cc2o1 (single isomer, unassigned) [Compound 253, 6-{6-[3-(cyclopropylamino)pyrrolidin-1-yl]-1,5-naphthyridin-2-yl}-4-fluoro-2-methyl-1,3-benzoxazol-5-ol] | < 100 |
| < 100 | < 100 | < 100 | < 100 | Cc1nc2c(F)c(O)c(-c3ccc4nc(N5CC[C@H](NC6CC6)C5)ccc4n3)cc2o1 (single isomer, unassigned) [Compound 254, 6-{6-[3-(cyclopropylamino)pyrrolidin-1-yl]-1,5-naphthyridin-2-yl}-4-fluoro-2-methyl-1,3-benzoxazol-5-ol] | < 100 |
| < 100 | < 100 | < 100 | < 100 | Cc1nc2c(F)c(O)c(-c3ccc4nc(N5CC[C@H](NC(C)(C)C)C5)ccc4n3)cc2o1 (single isomer, unassigned) [Compound 255, 6-{6-[3-(tert-butylamino)pyrrolidin-1-yl]-1,5-naphthyridin-2-yl}-4-fluoro-2-methyl-1,3-benzoxazol-5-ol] | < 100 |
| < 100 | < 100 | < 100 | < 100 | Cc1nc2c(F)c(O)c(-c3ccc4nc(N5CC[C@@H](NC(C)(C)C)C5)ccc4n3)cc2o1 (single isomer, unassigned) [Compound 256, 6-{6-[3-(tert-butylamino)pyrrolidin-1-yl]-1,5-naphthyridin-2-yl}-4-fluoro-2-methyl-1,3-benzoxazol-5-ol] | < 100 |
| < 100 | < 100 | < 100 | < 100 | Cc1nc2cc(O)c(-c3ccc4nc(N5CC[C@H](NC6(C)CC6)C5)ccc4n3)cc2o1 (single isomer, unassigned) [Compound 257, 2-methyl-6-(6-{3-[(1-methylcyclopropyl)amino]pyrrolidin-1-yl}-1,5-naphthyridin-2-yl)-1,3-benzoxazol-5-ol] | < 100 |
